Columns and labels:
[1] = target: T1, EP2 (Homo sapiens (Human), UniProt P43116); experiment: EP2 cAMP functional assay; format: cell-based
Text: (§1) U.S. patent application publication No. 20070129552, published on Jun. 7, 2007, incorporated by reference herein, describes the methods used to obtain the in vitro data in Table 1 below.

[2] = target: T1, EP2; experiment: EP2 binding assay (Ki)
Text: as §1

[3] = target: T2, prostaglandin EP4 receptor (Homo sapiens (Human), UniProt P35408); experiment: EP4 cAMP functional assay; format: cell-based
T2 sequence (P35408 whole entry): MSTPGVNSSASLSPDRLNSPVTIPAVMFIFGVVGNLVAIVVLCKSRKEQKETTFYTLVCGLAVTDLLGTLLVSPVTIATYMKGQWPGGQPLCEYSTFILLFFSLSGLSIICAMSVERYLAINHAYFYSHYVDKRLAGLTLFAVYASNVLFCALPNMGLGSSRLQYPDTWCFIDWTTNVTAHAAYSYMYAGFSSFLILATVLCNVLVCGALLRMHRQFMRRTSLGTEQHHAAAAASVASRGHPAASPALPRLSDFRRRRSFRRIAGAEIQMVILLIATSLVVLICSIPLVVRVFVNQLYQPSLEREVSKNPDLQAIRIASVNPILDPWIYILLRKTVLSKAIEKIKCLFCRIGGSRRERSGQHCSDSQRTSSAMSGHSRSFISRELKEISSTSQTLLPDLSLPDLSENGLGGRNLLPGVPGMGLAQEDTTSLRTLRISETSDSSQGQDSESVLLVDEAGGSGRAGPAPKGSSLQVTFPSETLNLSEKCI
Text: as §1

[4] = target: T2, prostaglandin EP4 receptor; experiment: EP4 binding assay (Ki); conditions: read-out: EP4 Ki EC50
Text: as §1

[5] = target: EP3 (Homo sapiens (Human), UniProt P43115); experiment: Other receptors FLIPR: EP3; format: cell-based; conditions: NA undefined in patent
EP3, sequence (P43115 whole entry): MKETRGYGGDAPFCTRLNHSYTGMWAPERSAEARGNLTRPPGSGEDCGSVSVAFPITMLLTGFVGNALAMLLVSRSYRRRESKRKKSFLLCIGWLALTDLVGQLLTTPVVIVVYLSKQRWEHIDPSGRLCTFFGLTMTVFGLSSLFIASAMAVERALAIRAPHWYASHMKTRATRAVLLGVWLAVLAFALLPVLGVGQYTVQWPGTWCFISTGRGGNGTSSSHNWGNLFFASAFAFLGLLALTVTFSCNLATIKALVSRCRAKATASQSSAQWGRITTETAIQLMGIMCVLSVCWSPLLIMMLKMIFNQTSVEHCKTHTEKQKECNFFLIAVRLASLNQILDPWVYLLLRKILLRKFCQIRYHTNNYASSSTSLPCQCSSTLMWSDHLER
Text: as §1

[6] = target: TP (Homo sapiens (Human), UniProt P21731); experiment: Other receptors FLIPR: TP; format: cell-based; conditions: NA undefined in patent
TP, sequence (P21731 whole entry): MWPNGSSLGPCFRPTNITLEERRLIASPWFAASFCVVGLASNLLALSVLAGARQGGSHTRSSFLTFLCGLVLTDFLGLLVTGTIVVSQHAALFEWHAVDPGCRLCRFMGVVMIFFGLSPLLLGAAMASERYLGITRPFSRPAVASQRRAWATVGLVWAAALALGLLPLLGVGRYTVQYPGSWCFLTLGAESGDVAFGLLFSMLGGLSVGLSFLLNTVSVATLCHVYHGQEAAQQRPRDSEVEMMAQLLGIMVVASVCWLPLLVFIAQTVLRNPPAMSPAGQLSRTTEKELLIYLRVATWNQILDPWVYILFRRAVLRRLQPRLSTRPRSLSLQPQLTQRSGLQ
Text: as §1

T1 sequence (P43116 whole entry): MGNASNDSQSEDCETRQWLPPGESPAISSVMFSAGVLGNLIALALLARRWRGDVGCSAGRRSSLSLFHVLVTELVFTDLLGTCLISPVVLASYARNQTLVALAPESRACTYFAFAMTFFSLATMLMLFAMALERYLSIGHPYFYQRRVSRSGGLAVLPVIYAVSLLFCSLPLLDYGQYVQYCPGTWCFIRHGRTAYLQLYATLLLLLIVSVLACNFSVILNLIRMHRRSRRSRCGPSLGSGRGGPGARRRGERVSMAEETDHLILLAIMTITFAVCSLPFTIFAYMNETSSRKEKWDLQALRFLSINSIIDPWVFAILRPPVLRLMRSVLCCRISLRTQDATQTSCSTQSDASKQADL

## O=C(O)c1ccc(CC[C@H]2C(=O)CC[C@@H]2/C=C/C(O)Cc2cccc(C(F)(F)F)c2)cc1 (single isomer, unassigned) [Entry 11, (E)-4-(2-(2-(3-hydroxy-4-(3-(trifluoromethyl)phenyl)but-1-en-1-yl)-5-oxocyclopentyl)ethyl)benzoic acid]
[1]
  EC50: 1010 nM
[2]
  Ki: 3160 nM
[3]
  EC50: 16 nM
[4]
  Ki: 90 nM

## COc1ccc2cc(CC(O)/C=C/[C@H]3CCC(=O)[C@@H]3CCc3ccc(C(=O)O)cc3)ccc2c1 (stereo partly drawn) [Entry 16, (E)-4-(2-(2-(3-hydroxy-4-(6-methoxynaphthalen-2-yl)but-1-en-1-yl)-5-oxocyclopentyl)ethyl)benzoic acid]
[2]
  EP2 Ki (nM): >10K
[3]
  EC50: 728 nM
[4]
  Ki: 2660 nM

## O=C(O)c1ccc(CC[C@H]2C(=O)CC[C@@H]2/C=C/C(O)Cc2ccc(F)c(F)c2)cc1 (single isomer, unassigned) [Entry 23, (E)-4-(2-(2-(4-(3,4-difluorophenyl)-3-hydroxybut-1-en-1-yl)-5-oxocyclopentyl)ethyl)benzoic acid]
[2]
  Ki: 9320 nM
[3]
  EC50: 21 nM
[4]
  Ki: 293 nM

## O=C(O)c1ccc(CC[C@H]2C(=O)CC[C@@H]2/C=C/C(O)Cc2ccc3ccsc3c2)cc1 (stereo partly drawn) [Entry 15, (E)-4-(2-(2-(4-(benzo[b]thiophen-6-yl)-3-hydroxybut-1-en-1-yl)-5-oxocyclopentyl)ethyl)benzoic acid]
[2]
  EP2 Ki (nM): >10K
[3]
  EC50: 0.5 nM
[4]
  Ki: 41 nM
[5]
  EC50: 67 nM
[6]
  OTHER RECEPTORS FLIPR EC50 (nM): TP: < 10000 nM

## O=C(O)c1ccc(CC[C@H]2C(=O)CC[C@@H]2/C=C/C(O)Cc2cc(F)ccc2F)cc1 (single isomer, unassigned) [Entry 27, (E)-4-(2-(2-(4-(2,5-difluorophenyl)-3-hydroxybut-1-en-1-yl)-5-oxocyclopentyl)ethyl)benzoic acid]
[1]
  EC50: 125 nM
[2]
  Ki: 3630 nM
[3]
  EC50: 18 nM
[4]
  Ki: 457 nM

## O=C(O)c1ccc(CC[C@H]2C(=O)CC[C@@H]2/C=C/C(O)Cc2sc3ccccc3c2Cl)cc1 (single isomer, unassigned) [Entry 3, (E)-4-(2-(2-(4-(3-chlorobenzo[b]thiophen-2-yl)-3-hydroxybut-1-en-1-yl)-5-oxocyclopentyl)ethyl)benzoic acid]
[1]
  EP2 cAMP EC50 (nM): >10K
[2]
  EP2 Ki (nM): >10K
[3]
  EC50: 1280 nM
[4]
  Ki: 2310 nM

## O=C(O)c1ccc(CC[C@H]2C(=O)CC[C@@H]2/C=C/C(O)Cc2cccc(Br)c2)cc1 (single isomer, unassigned) [Entry 9, (E)-4-(2-(2-(4-(3-bromophenyl)-3-hydroxybut-1-en-1-yl)-5-oxocyclopentyl)ethyl)benzoic acid]
[1]
  EC50: 278 nM
[2]
  Ki: 1450 nM

## COc1ccc2ccc(CC(O)/C=C/[C@H]3CCC(=O)[C@@H]3CCc3ccc(C(=O)O)cc3)cc2c1 (stereo partly drawn) [Entry 18, (E)-4-(2-(2-(3-hydroxy-4-(7-methoxynaphthalen-2-yl)but-1-en-1-yl)-5-oxocyclopentyl)ethyl)benzoic acid]
[2]
  EP2 Ki (nM): >10K
[3]
  EC50: 2 nM
[4]
  Ki: 9 nM

## O=C(O)c1ccc(CC[C@H]2C(=O)CC[C@@H]2/C=C/C(O)Cc2cccc(C(F)(F)F)c2)cc1 (single isomer, unassigned) [Entry 12, (E)-4-(2-(2-(3-hydroxy-4-(3-(trifluoromethyl)phenyl)but-1-en-1-yl)-5-oxocyclopentyl)ethyl)benzoic acid]
[1]
  EC50: 35 nM
[2]
  Ki: 1310 nM
[3]
  EC50: 0.2 nM
[4]
  Ki: 1 nM
[6]
  EC50: 218 nM

## O=C(O)c1ccc(CC[C@H]2C(=O)CC[C@@H]2/C=C/C(O)Cc2ccccc2F)cc1 (single isomer, unassigned) [Entry 22, (E)-4-(2-(2-(4-(2-fluorophenyl)-3-hydroxybut-1-en-1-yl)-5-oxocyclopentyl)ethyl)benzoic acid]
[1]
  EC50: 8 nM
[2]
  Ki: 1030 nM
[3]
  EC50: 0.3 nM
[4]
  Ki: 4 nM
[5]
  EC50: 4670 nM

## O=C(O)c1ccc(CC[C@H]2C(=O)CC[C@@H]2/C=C/C(O)Cc2ccc3ccccc3c2)cc1 (single isomer, unassigned) [Entry 2]
[2]
  EP2 Ki (nM): >10K
[3]
  EC50: 21 nM
[4]
  Ki: 10 nM

## O=C(O)c1ccc(CC[C@H]2C(=O)CC[C@@H]2/C=C/C(O)Cc2cccc(Br)c2)cc1 (single isomer, unassigned) [Entry 10, (E)-4-(2-(2-(4-(3-bromophenyl)-3-hydroxybut-1-en-1-yl)-5-oxocyclopentyl)ethyl)benzoic acid]
[1]
  EC50: 26 nM
[2]
  Ki: 947 nM
[5]
  EC50: 180 nM
[6]
  EC50: 108 nM

## O=C(O)c1ccc(CC[C@H]2C(=O)CC[C@@H]2/C=C/C(O)Cc2ccc(F)cc2)cc1 (single isomer, unassigned) [Entry 19, (E)-4-(2-(2-(4-(4-fluorophenyl)-3-hydroxybut-1-en-1-yl)-5-oxocyclopentyl)ethyl)benzoic acid]
[2]
  Ki: 9290 nM
[3]
  EC50: 38 nM
[4]
  Ki: 902 nM

## O=C(O)c1ccc(CC[C@H]2C(=O)CC[C@@H]2/C=C/C(O)Cc2ccccc2F)cc1 (single isomer, unassigned) [Entry 21, (E)-4-(2-(2-(4-(2-fluorophenyl)-3-hydroxybut-1-en-1-yl)-5-oxocyclopentyl)ethyl)benzoic acid]
[1]
  EC50: 76 nM
[2]
  Ki: 2220 nM
[3]
  EC50: 4 nM
[4]
  Ki: 64 nM

## O=C(O)c1ccc(CC[C@H]2C(=O)CC[C@@H]2/C=C/C(O)Cc2ccc3ccccc3c2)cc1 (single isomer, unassigned) [Entry 1]
[2]
  EP2 Ki (nM): >10K
[3]
  EC50: 1 nM
[4]
  Ki: 0.8 nM

## O=C(O)c1ccc(CC[C@H]2C(=O)CC[C@@H]2/C=C/C(O)Cc2ccc(F)c(F)c2)cc1 (single isomer, unassigned) [Entry 24, (E)-4-(2-(2-(4-(3,4-difluorophenyl)-3-hydroxybut-1-en-1-yl)-5-oxocyclopentyl)ethyl)benzoic acid]
[1]
  EC50: 30 nM
[2]
  Ki: 1530 nM
[3]
  EC50: 0.3 nM
[4]
  Ki: 3 nM
[5]
  EC50: 1510 nM
[6]
  EC50: 2450 nM

## O=C(O)c1ccc(CC[C@H]2C(=O)CC[C@@H]2/C=C/C(O)Cc2cccc(F)c2)cc1 (single isomer, unassigned) [Entry 6, (E)-4-(2-(2-(4-(3-fluorophenyl)-3-hydroxybut-1-en-1-yl)-5-oxocyclopentyl)ethyl)benzoic acid]
[1]
  EC50: 10 nM
[2]
  Ki: 1780 nM
[3]
  EC50: 0.04 nM
[4]
  Ki: 2 nM
[5]
  EC50: 721 nM
[6]
  EC50: 7190 nM

## O=C(O)c1ccc(CC[C@H]2C(=O)CC[C@@H]2/C=C/C(O)Cc2cccc(F)c2)cc1 (single isomer, unassigned) [Entry 5, (E)-4-(2-(2-(4-(3-fluorophenyl)-3-hydroxybut-1-en-1-yl)-5-oxocyclopentyl)ethyl)benzoic acid]
[1]
  EC50: 78 nM
[2]
  Ki: 3420 nM
[3]
  EC50: 1 nM
[4]
  Ki: 40 nM

## O=C(O)c1ccc(CC[C@H]2C(=O)CC[C@@H]2/C=C/C(O)Cc2ccc(F)cc2)cc1 (single isomer, unassigned) [Entry 20, (E)-4-(2-(2-(4-(4-fluorophenyl)-3-hydroxybut-1-en-1-yl)-5-oxocyclopentyl)ethyl)benzoic acid]
[1]
  EC50: 11 nM
[2]
  Ki: 745 nM
[3]
  EC50: 0.2 nM
[4]
  Ki: 3 nM
[5]
  EC50: 952 nM
[6]
  EC50: 5600 nM

## O=C(O)c1ccc(CC[C@H]2C(=O)CC[C@@H]2/C=C/C(O)Cc2cc(F)ccc2F)cc1 (single isomer, unassigned) [Entry 28, (E)-4-(2-(2-(4-(2,5-difluorophenyl)-3-hydroxybut-1-en-1-yl)-5-oxocyclopentyl)ethyl)benzoic acid]
[1]
  EC50: 10 nM
[2]
  Ki: 1300 nM
[3]
  EC50: 0.2 nM
[4]
  Ki: 5 nM
[5]
  EC50: 5990 nM

## O=C(O)c1ccc(CC[C@H]2C(=O)CC[C@@H]2/C=C/C(O)Cc2cccc(Cl)c2)cc1 (stereo partly drawn) [Entry 7, (E)-4-(2-(2-(4-(3-chlorophenyl)-3-hydroxybut-1-en-1-yl)-5-oxocyclopentyl)ethyl)benzoic acid]
[1]
  EC50: 123 nM
[2]
  Ki: 2760 nM
[3]
  EC50: 2 nM
[4]
  Ki: 2 nM
[6]
  EC50: 4830 nM

## O=C(O)c1ccc(CC[C@H]2C(=O)CC[C@@H]2/C=C/C(O)Cc2cccc(F)c2F)cc1 (single isomer, unassigned) [Entry 26, (E)-4-(2-(2-(4-(2,3-difluorophenyl)-3-hydroxybut-1-en-1-yl)-5-oxocyclopentyl)ethyl)benzoic acid]
[1]
  EC50: 8 nM
[2]
  Ki: 1240 nM
[3]
  EC50: 0.2 nM
[4]
  Ki: 2 nM
[5]
  EC50: 9950 nM

## O=C(O)c1ccc(CC[C@H]2C(=O)CC[C@@H]2/C=C/C(O)Cc2cccc(F)c2F)cc1 (single isomer, unassigned) [Entry 25, (E)-4-(2-(2-(4-(2,3-difluorophenyl)-3-hydroxybut-1-en-1-yl)-5-oxocyclopentyl)ethyl)benzoic acid]
[1]
  EC50: 164 nM
[2]
  Ki: 3150 nM
[3]
  EC50: 30 nM
[4]
  Ki: 585 nM

## COc1cc2ccccc2cc1CC(O)/C=C/[C@H]1CCC(=O)[C@@H]1CCc1ccc(C(=O)O)cc1 (stereo partly drawn) [Entry 17, (E)-4-(2-(2-(3-hydroxy-4-(3-methoxynaphthalen-2-yl)but-1-en-1-yl)-5-oxocyclopentyl)ethyl)benzoic acid]
[2]
  EP2 Ki (nM): >10K
[4]
  Ki: 4620 nM

## O=C(O)c1ccc(CC[C@H]2C(=O)CC[C@@H]2/C=C/C(O)Cc2sc3ccccc3c2Cl)cc1 (single isomer, unassigned) [Entry 4, (E)-4-(2-(2-(4-(3-chlorobenzo[b]thiophen-2-yl)-3-hydroxybut-1-en-1-yl)-5-oxocyclopentyl)ethyl)benzoic acid]
[1]
  EP2 cAMP EC50 (nM): >10K
[2]
  EP2 Ki (nM): >10K
[3]
  EC50: 186 nM
[4]
  Ki: 603 nM

— patent US9394273B2, “Therapeutic prostaglandin receptor agonists” (Allergan, Inc., priority 2014, dated 2016)
